Experimental findings from patent publication US8399462B2, “JNK modulators” (Roche Palo Alto LLC, priority 2006, dated 2013) are described below.

SMILES strings stand for the structures. Where two headings read alike, the source gives them in different places.

One series has as its target Human JNK1α1 (Homo sapiens, UniProt P45983). In words: JNK assay in vitro (phosphorylation of GST-ATF2 with [γ-33P]ATP), JNK1. It is filed as biochemical. How it is done:
(§1) JNK activity was measured by phosphorylation of GST-ATF2 (19-96) with [γ-^33P] ATP. […] Human JNK2α2 assay contains 1 nM enzyme, 1 μM ATF2, 8 μM ATP with 1 μCi [γ-^33P] ATP. Human JNK1α1 assay contains 2 nM enzyme, 1 μM ATF2, 6 μM ATP with 1 μCi [γ-^33P] ATP. Human JNK3 (Upstate Biotech #14-501M) assay contains 2 nM enzyme, 1 μM ATF2, 4 μM ATP with 1 μCi [γ-33P] ATP. The enzyme assay was carried out in the presence or absence of several compound concentrations. JNK and compound were pre-incubated for 10 min., followed by initiation of the enzymatic reaction by adding ATP and the substrate. The reaction mixture was incubated at 30° C. for 30 min. At the end of incubation, the reaction was terminated by transferring 25 μl of the reaction mixture to 150 μl of 10% glutathione Sepharose® slurry (Amersham # 27-4574-01) containing 135 mM EDTA. The reaction product was captured on the affinity resin, and washed on a filtration plate (Millipore, MABVNOB50) with phosphate buffered saline for six times to remove free radionucleotide. The incorporation of ^33P into ATF2 was quantified on a microplate scintillation counter (Packard Topcount). Compound inhibition potency on JNK was measured by IC50 value generated from ten concentration inhibition curves fitted into the 3-parameter model: % inhibition=Maximum/(I+(IC50/[Inhibitor])^slope). Data were analyzed on Microsoft Excel for parameter estimation.

The target of the next series is Human JNK2α2 (Homo sapiens, UniProt P45984). Description: JNK assay in vitro (phosphorylation of GST-ATF2 with [γ-33P]ATP), JNK2. It is filed as biochemical. How it is done:
as §1

The subject of the next series is c-jun. Description: c-jun of Table 2 (method not described). It is filed as cell-based.
Series [1] relates to TNFα-induced IL-6 production. Description: Rat in vivo TNFα-induced IL-6 production assay. The settings on record: 1.5 h, oral gavage, 30 min before TNF-α i.p., blood 90 min after challenge. As to the method: Female Wistar-Han rats procured from Charles River Laboratories were allowed to acclimate for one week prior to use and achieve an approximate body weight of 95-130 g. Rats were administered test compound via oral gavage 30 min prior to an intraperitoneal challenge of 0.5 μg recombinant rat TNF-α (Biosource). Blood was collected via cardiocentesis 90 min after TNF-α challenge. Plasma was prepared using lithium heparin separation tubes (BD microtainer) and frozen at −80° C. until analyzed. IL-6 levels were determined using a rat specific IL-6 ELISA kit (Biosource).

In series [2] the test system is inflammatory cell infiltration into BAL. In words: Ovalbumin-sensitized asthma model (inflammatory cell infiltration into BAL). It is filed as in vivo, rat. How it is done:
(A) Male Brown-Norway rats are sensitized i.p. with 100 μg of OA (ovalbumin) in 0.2 ml alum once every week for three weeks (day 0, 7, and 14). The week following the last sensitization, the rats are ready for testing. One to 2 days prior to challenge, animals are weighed. On day 21, the rats are dosed q.d. with either vehicle or compound formulation subcutaneously 30 minutes before OA aerosol challenge (1% OA for 45 minutes) and terminated 4 or 24 hours after challenge. At time of sacrifice, rats are anesthetized (urethane, approx. 2 g/kg, i.p.). Plasma is collected from rats for PK at termination. Blood is drawn from the abdominal aorta at termination. A tracheal cannula is inserted and the lungs are lavaged with 3×3 ml PBS. The BAL fluid is analyzed for total leukocyte number and differential leukocyte counts. Total leukocyte number in an aliquot of the cells (20-100 μl) is determined using a Coulter Counter. For differential leukocyte counts, 50-200 μl of the sample is centrifuged in a Cytospin and the slide stained with Diff-Quik. The proportions of monocytes, eosinophils, neutrophils and lymphocytes are counted under light microscopy using standard morphological criteria and expressed as a percentage. The remaining BAL fluid is centrifuged (1500 rpm, 10 min) and the supernatant is stored at −80° C. Lungs are also harvested for protein and/or RNA analyses.

Series [3] has the same test system. The description is as above. It is filed as in vivo, rat. The note with it: 30 mg/kg.

Sequence of Human JNK1α1 (P45983 1-384 isoform P45983-2): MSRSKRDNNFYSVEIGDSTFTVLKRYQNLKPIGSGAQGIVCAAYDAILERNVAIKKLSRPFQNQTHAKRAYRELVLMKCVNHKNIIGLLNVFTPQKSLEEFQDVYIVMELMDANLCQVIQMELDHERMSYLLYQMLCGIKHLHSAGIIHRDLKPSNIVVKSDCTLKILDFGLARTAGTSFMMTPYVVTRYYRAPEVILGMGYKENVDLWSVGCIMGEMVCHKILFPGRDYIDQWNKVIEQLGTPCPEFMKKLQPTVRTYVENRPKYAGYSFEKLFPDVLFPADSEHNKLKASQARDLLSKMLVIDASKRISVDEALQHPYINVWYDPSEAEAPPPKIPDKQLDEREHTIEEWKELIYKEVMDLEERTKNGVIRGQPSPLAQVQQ
Sequence of Human JNK2α2 (P45984 whole entry): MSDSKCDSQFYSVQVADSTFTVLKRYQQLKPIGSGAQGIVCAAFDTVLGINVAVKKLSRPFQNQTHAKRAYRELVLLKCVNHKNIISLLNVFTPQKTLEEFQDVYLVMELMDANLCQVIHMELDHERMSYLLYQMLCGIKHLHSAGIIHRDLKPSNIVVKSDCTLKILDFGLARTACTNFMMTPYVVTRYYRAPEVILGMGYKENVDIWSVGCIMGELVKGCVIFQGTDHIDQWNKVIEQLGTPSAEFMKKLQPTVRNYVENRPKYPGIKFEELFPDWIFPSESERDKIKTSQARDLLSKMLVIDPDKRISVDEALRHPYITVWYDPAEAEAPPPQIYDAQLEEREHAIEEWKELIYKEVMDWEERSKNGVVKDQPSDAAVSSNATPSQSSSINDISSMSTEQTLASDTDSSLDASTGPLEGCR

For the molecule `CCC(CO)NC(=O)[C@H]1CC[C@H](Nc2nccc(-n3ncc4ccccc43)n2)CC1` (some centres unmarked) [Compound 15], the IC50 (in general, the concentration that inhibits the measured activity by half) against Human JNK1α1 is 67.8 nM; against Human JNK2α2 it was 458 nM; in the series with c-jun, 1290 nM.

In the case of `O=C(NCC(O)CO)[C@H]1CC[C@H](Nc2nccc(-n3ncc4ccccc43)n2)CC1` (some centres unmarked) [Compound 16], the IC50 turned out to be 70.8 nM on Human JNK1α1, 592 nM at Human JNK2α2 and 4130 nM in the series on c-jun. The inhibition in vivo (commonly the drop in the measured response relative to a control, in per cent) at 30 mg/kg in series [1] came out at 47.4%.

With `CC(C)(O)c1cccc2c1ccn2-c1ccnc(N[C@H]2CC[C@H](O)CC2)n1` [Compound 18, 4-[4-(4-(2-hydroxyprop-2-yl)-indol-1-yl)-pyrimidin-2-ylamino]-cyclohexanol], the IC50 against Human JNK1α1 is 73.5 nM; against Human JNK2α2, 337 nM; with c-jun it was 1950 nM.

Take `O=C(NC(CO)CO)[C@H]1CC[C@H](Nc2nccc(-n3ncc4ccccc43)n2)CC1` [Compound 26, 4-(4-indazol-1-yl-pyrimidin-2-ylamino)-cyclohexane carboxylic acid 1,3-dihydroxyprop-2-ylamide]: the results for the IC50 against Human JNK1α1, against Human JNK2α2 and with c-jun were 85 nM, 695 nM and 1890 nM, respectively. The molecule further displayed an inhibition in vivo at 30 mg/kg in series [1] of 59.6%.

Take `COc1cccc2c1cnn2-c1ccnc(N[C@H]2CC[C@H](O)CC2)n1` [Compound 86, 4-[4-(4-methoxyindazol-1-yl)-pyrimidin-2-yl-amino]-cyclohexanol]: the IC50 against Human JNK1α1 (Km concentrations of ATP and substrate, 6 μM ATP, 1 μM ATF2) was 22.8 nM; against Human JNK2α2 (Km concentrations of ATP and substrate, 8 μM ATP, 1 μM ATF2), 178 nM.

As for `N#CCOc1cccc2c1cnn2-c1ccnc(N[C@H]2CC[C@H](O)CC2)n1` [Compound 87, (1-[2-(4-hydroxycyclo-hexylamino)-pyrimidin-4-yl]-1H-indazol-4-yl-oxy)acetonitrile], the IC50 at Human JNK1α1 is 29.7 nM; at Human JNK2α2, 191 nM; in the series with c-jun, 1710 nM. The same molecule showed an inhibition in vivo at 10 mg/kg in series [1] of 64%.

On to `CC(C)C(=O)Nc1cccc2c1ccn2-c1ccnc(N[C@H]2CC[C@H](O)CC2)n1` [Compound 88, N-(1-[2-(4-hydroxy-cyclohexylamino)-pyrimidin-4-yl]-1H-indol-4-yl)-isobutyr-amide], for which the melting point (commonly the temperature, or range, at which the solid turns liquid) was 211.8 to 212.6 °C. Besides, inhibition on Human JNK1α1 was half-maximal at 70.9 nM (IC50). Also, half-maximal inhibition against Human JNK2α2 (IC50) required 480 nM.

With `CC(C)(O)[C@H]1CC[C@H](Nc2nccc(-n3ncc4c(OCCCS(C)(=O)=O)cccc43)n2)CC1` [Compound 157, 2-(4-{4-[4-(3-methane-sulfonyl-propoxy)-indazol-1-yl]-pyrimidin-2-ylamino}-cyclohexyl)-propan-2-ol], the inhibition in vivo at 10 mg/kg in series [1] was determined as 52.5%. In addition, in series [2] (10 mg/kg), the Eosinophils % inhibition came to 6.5%, the “Eosinophils count in BAL” value was 0.29 ± 0.09 × 10^5 per mL, the Neutrophils % inhibition was found to be 41.3% and the “Neutrophils count in BAL” value is recorded as 0.94 ± 0.10 × 10^5 per mL. In series [2] (10 mg/kg), the “Total cells % inhibition” value worked out at 3.3% and the “Total cells count in BAL” value was 2.67 ± 0.13 × 10^5 per mL. Besides, in series [2] (30 mg/kg), the “Total cells % inhibition” value amounted to 10.9%. Besides, in series [3], the Eosinophils % inhibition is 22.6%, the “Eosinophils count in BAL” value is given as 0.24 ± 0.05 × 10^5 per mL, the Neutrophils % inhibition is 70.6% and the “Neutrophils count in BAL” value is 0.47 ± 0.12 × 10^5 per mL. In addition, the “Total cells count in BAL” value in series [3] is on record as 2.46 ± 0.18 × 10^5 per mL.

`CS(=O)(=O)CCCOc1cccc2c1cnn2-c1ccnc(N[C@H]2CC[C@H](NC(=O)CN3CCOCC3)CC2)n1` [Compound 159, N-(4-{4-[4-(3-methane-sulfonyl-propoxy)-indazol-1-yl]-pyrimidin-2-ylamino}-cyclohexyl)-2-morpholin-4-yl-acetamide] had a melting point of 219.2 to 221.1 °C. This molecule also displayed an inhibition in vivo at 10 mg/kg in series [1] of 57.6%.

As to `CC(C)(O)[C@H]1CC[C@H](Nc2nccc(-n3ccc4c(OCCCS(C)(=O)=O)cccc43)n2)CC1` [Compound 166, 2-(4-{4-[4-(3-methanesulfonyl-propoxy)-indol-1-yl]-pyrimidin-2-ylamino}-cyclohexyl)-propan-2-ol], in series [1], the inhibition in vivo at 10 mg/kg was 48.5% and the inhibition in vivo at 20 mg/kg was found to be 75.2%.

Molecule `CS(=O)(=O)CCCOc1cccc2c1ccn2-c1ccnc(N[C@H]2CC[C@H](C(=O)N3CC[C@H](O)C3)CC2)n1` [Compound 224, (3-hydroxy-pyrrolidin-1-yl)-(4-{4-[4-(3-methane-sulfonyl-propoxy)-indol-1-yl]-pyrimidin-2-ylamino}-cyclohexyl)-methanone] yielded an inhibition in vivo at 20 mg/kg in series [1] of 68.6%.

As to `CS(=O)(=O)CCCOc1cccc2c1ccn2-c1ccnc(N[C@H]2CC[C@H](C(=O)N3CC[C@@H](O)C3)CC2)n1` [Compound 225, (3-hydroxy-pyrrolidin-1-yl)-(4-{4-[4-(3-methane-sulfonyl-propoxy)-indol-1-yl]-pyrimidin-2-ylamino}-cyclohexyl)-methanone], the inhibition in vivo at 20 mg/kg in series [1] stood at 50.9%.

Molecule `CS(=O)(=O)CCCOc1cccc2c1ccn2-c1ccnc(N[C@H]2CC[C@H](C(=O)N3CCC(N)CC3)CC2)n1.Cl` [Compound 233, (4-amino-piperidin-1-yl)-(4-{4-[4-(3-methane-sulfonyl-propoxy)-indol-1-yl]-pyrimidin-2-ylamino}-cyclohexyl)-methanone] came in with a melting point of 247 to 248 °C. Further, testing at 20 mg/kg in series [1] gave an inhibition in vivo of 57.8%.

As for `C[C@@H]1C[C@H]2[C@@H]3CCC4=CC(=O)C=C[C@]4(C)[C@@]3(F)[C@@H](O)C[C@]2(C)[C@@]1(O)C(=O)CO` [Dexamethasone, dexamethasone, reference compound], in series [2] (10 mg/kg), the Eosinophils % inhibition was found to be 41.9%, the “Eosinophils count in BAL” value is recorded as 0.18 ± 0.11 × 10^5 per mL, the Neutrophils % inhibition came out at 97.5% and the “Neutrophils count in BAL” value is 0.04 ± 0.01 × 10^5 per mL. For the same molecule, the “Total cells % inhibition” value in series [2] (10 mg/kg) is on record as 23.2%.

Molecule `OCc1ccc2cnn(-c3ccnc(N[C@H]4CC[C@H](O)CC4)n3)c2c1` [Example 20, trans-4-[4-(6-Hydroxymethylindazol-1-yl)-pyrimidin-2-ylamino]-cyclohexanol] came in with a melting point of 216 to 217.7 °C.
